Reference: US9149038B2, “4-amino-6-(heterocyclic)picolinates and 6-amino-2-(heterocyclic)pyrimidine-4-carboxylates and their use as herbicides” (Dow AgroSciences LLC, priority 2013, dated 2015)
Where two headings read alike, the source gives them in different places.

How the values were obtained:
[1] = tested on: Key Grass and Sedge Weeds as well as Grass Crops; assay: Post-Emergent Test II: postemergent herbicidal activity, visual rating after 14 d (Table 8); type: in vivo; details: post-emergence, 336 h; for pest or weed control at 35 g/ha: 35 g ai/ha; for pest or weed control at 70 g/ha: 70 g ai/ha; for pest or weed control at 140 g/ha: 140 g ai/ha
Method in brief: (§1)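 Scoring is visual, 0-100, at 14 d after application, comparing treated with untreated plants. Application: overhead track spray at 187 L/ha onto seedlings at 1-2 true leaves, in surfactant/crop-oil carrier.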

[2] = tested on: Key Broadleaf Weed and Crop Species; assay: Post-Emergent Test II: postemergent herbicidal activity, visual rating after 14 d (Table 7); type: in vivo; details: post-emergence, 336 h; for pest or weed control at 35 g/ha: 35 g ai/ha; for pest or weed control at 70 g/ha: 70 g ai/ha; for pest or weed control at 140 g/ha: 140 g ai/ha
Method in brief: as §1

[3] = barnyardgrass (Echinochloa crus-galli), read-out: Visual Growth Reduction (%) 14 Days After Application ECHCG
[4] = giant foxtail (Setaria faberi), read-out: Visual Growth Reduction (%) 14 Days After Application SETFA
[5] = maize, corn (Zea mays), read-out: Visual Growth Reduction (%) 14 Days After Application ZEAMX
[6] = rice (Oryza sativa), read-out: Visual Growth Reduction (%) 14 Days After Application ORYSA
[7] = wheat, spring (Triticum aestivum), read-out: Visual Growth Reduction (%) 14 Days After Application TRZAS
[8] = yellow nutsedge (Cyperus esculentus), read-out: Visual Growth Reduction (%) 14 Days After Application CYPES
[9] = lambsquarters (Chenopodium album), read-out: Visual Growth Reduction (%) 14 Days After Application CHEAL
[10] = oilseed rape, canola (Brassica napus), read-out: Visual Growth Reduction (%) 14 Days After Application BRSNN
[11] = redroot pigweed (Amaranthus retroflexus), read-out: Visual Growth Reduction (%) 14 Days After Application AMARE
[12] = sunflower (Helianthus annuus), read-out: Visual Growth Reduction (%) 14 Days After Application HELAN
[13] = velvetleaf (Abutilon theophrasti), read-out: Visual Growth Reduction (%) 14 Days After Application ABUTH
[14] = wild poinsettia (Euphorbia heterophylla), read-out: Visual Growth Reduction (%) 14 Days After Application EPHHL

SMILES	pest or weed control at 35 g/ha [1, 3]	pest or weed control at 70 g/ha [1, 3]	pest or weed control at 140 g/ha [1, 3]	pest or weed control at 35 g/ha [1, 4]	pest or weed control at 70 g/ha [1, 4]	pest or weed control at 140 g/ha [1, 4]	pest or weed control at 35 g/ha [1, 5]	pest or weed control at 70 g/ha [1, 5]	pest or weed control at 140 g/ha [1, 5]	pest or weed control at 35 g/ha [1, 6]	pest or weed control at 70 g/ha [1, 6]	pest or weed control at 140 g/ha [1, 6]	pest or weed control at 35 g/ha [1, 7]	pest or weed control at 70 g/ha [1, 7]	pest or weed control at 140 g/ha [1, 7]	pest or weed control at 35 g/ha [1, 8]	pest or weed control at 70 g/ha [1, 8]	pest or weed control at 140 g/ha [1, 8]	pest or weed control at 35 g/ha [2, 9]	pest or weed control at 70 g/ha [2, 9]	further results
COC(=O)c1nc(-c2cc3c(cc2F)OC(F)(F)O3)c(F)c(N)c1Cl [Compound 9]	85 to 94%	85 to 94%	95 to 100%	45 to 59%	60 to 74%	75 to 84%	60 to 74%	60 to 74%	75 to 84%	0 to 29%	0 to 29%	0 to 29%	30 to 44%	45 to 59%	60 to 74%	95 to 100%	95 to 100%	95 to 100%	85 to 94%	85 to 94%	pest or weed control at 140 g/ha [2, 9]: 85 to 94%; pest or weed control at 35 g/ha [2, 10]: 75 to 84%; pest or weed control at 70 g/ha [2, 10]: 85 to 94%; pest or weed control at 140 g/ha [2, 10]: 95 to 100%; pest or weed control at 35 g/ha [2, 11]: 0 to 29%; pest or weed control at 70 g/ha [2, 11]: 0 to 29%; pest or weed control at 140 g/ha [2, 11]: 0 to 29%; pest or weed control at 35 g/ha [2, 12]: 85 to 94%; pest or weed control at 70 g/ha [2, 12]: 85 to 94%; pest or weed control at 140 g/ha [2, 12]: 95 to 100%; pest or weed control at 35 g/ha [2, 13]: 75 to 84%; pest or weed control at 70 g/ha [2, 13]: 85 to 94%; pest or weed control at 140 g/ha [2, 13]: 95 to 100%; pest or weed control at 35 g/ha [2, 14]: 75 to 84%; pest or weed control at 70 g/ha [2, 14]: 85 to 94%; pest or weed control at 140 g/ha [2, 14]: 85 to 94%
COC(=O)c1nc(-c2ccc3c(c2F)OC(F)(F)O3)c(F)c(N)c1Cl [Compound 10]	95 to 100%	95 to 100%	95 to 100%	75 to 84%	95 to 100%	95 to 100%	60 to 74%	75 to 84%	75 to 84%	0 to 29%	0 to 29%	0 to 29%	45 to 59%	60 to 74%	60 to 74%	95 to 100%	95 to 100%	95 to 100%	85 to 94%	85 to 94%	pest or weed control at 140 g/ha [2, 9]: 95 to 100%; pest or weed control at 35 g/ha [2, 10]: 75 to 84%; pest or weed control at 70 g/ha [2, 10]: 85 to 94%; pest or weed control at 140 g/ha [2, 10]: 85 to 94%; pest or weed control at 35 g/ha [2, 11]: 85 to 94%; pest or weed control at 70 g/ha [2, 11]: 95 to 100%; pest or weed control at 140 g/ha [2, 11]: 95 to 100%; pest or weed control at 35 g/ha [2, 12]: 85 to 94%; pest or weed control at 70 g/ha [2, 12]: 85 to 94%; pest or weed control at 140 g/ha [2, 12]: 85 to 94%; pest or weed control at 35 g/ha [2, 13]: 85 to 94%; pest or weed control at 70 g/ha [2, 13]: 95 to 100%; pest or weed control at 140 g/ha [2, 13]: 95 to 100%; pest or weed control at 35 g/ha [2, 14]: 95 to 100%; pest or weed control at 70 g/ha [2, 14]: 95 to 100%; pest or weed control at 140 g/ha [2, 14]: 95 to 100%
Nc1c(F)c(-c2ccc3c(c2F)OC(F)(F)O3)nc(C(=O)O)c1Cl [Compound 11]	85 to 94%	95 to 100%	95 to 100%	75 to 84%	85 to 94%	95 to 100%	60 to 74%	60 to 74%	75 to 84%	0 to 29%	0 to 29%	30 to 44%	60 to 74%	60 to 74%	75 to 84%	0 to 29%	95 to 100%	95 to 100%	95 to 100%	95 to 100%	pest or weed control at 140 g/ha [2, 9]: 95 to 100%; pest or weed control at 35 g/ha [2, 10]: 85 to 94%; pest or weed control at 70 g/ha [2, 10]: 85 to 94%; pest or weed control at 140 g/ha [2, 10]: 85 to 94%; pest or weed control at 35 g/ha [2, 12]: 95 to 100%; pest or weed control at 70 g/ha [2, 12]: 95 to 100%; pest or weed control at 140 g/ha [2, 12]: 95 to 100%; pest or weed control at 35 g/ha [2, 13]: 85 to 94%; pest or weed control at 70 g/ha [2, 13]: 85 to 94%; pest or weed control at 140 g/ha [2, 13]: 95 to 100%; pest or weed control at 35 g/ha [2, 14]: 95 to 100%; pest or weed control at 70 g/ha [2, 14]: 95 to 100%; pest or weed control at 140 g/ha [2, 14]: 95 to 100%
COC(=O)c1nc(-c2cc3c(cc2Cl)OC(F)(F)O3)c(F)c(N)c1Cl [Compound 12]	0 to 29%	0 to 29%	0 to 29%	0 to 29%	0 to 29%	0 to 29%	0 to 29%	0 to 29%	0 to 29%	0 to 29%	0 to 29%	0 to 29%	0 to 29%	0 to 29%	0 to 29%	0 to 29%	0 to 29%	0 to 29%	0 to 29%	0 to 29%	pest or weed control at 140 g/ha [2, 9]: 0 to 29%; pest or weed control at 35 g/ha [2, 10]: 0 to 29%; pest or weed control at 70 g/ha [2, 10]: 0 to 29%; pest or weed control at 140 g/ha [2, 10]: 0 to 29%; pest or weed control at 35 g/ha [2, 11]: 0 to 29%; pest or weed control at 70 g/ha [2, 11]: 0 to 29%; pest or weed control at 140 g/ha [2, 11]: 0 to 29%; pest or weed control at 35 g/ha [2, 12]: 0 to 29%; pest or weed control at 70 g/ha [2, 12]: 0 to 29%; pest or weed control at 140 g/ha [2, 12]: 0 to 29%; pest or weed control at 35 g/ha [2, 13]: 0 to 29%; pest or weed control at 70 g/ha [2, 13]: 0 to 29%; pest or weed control at 140 g/ha [2, 13]: 60 to 74%; pest or weed control at 35 g/ha [2, 14]: 0 to 29%; pest or weed control at 70 g/ha [2, 14]: 0 to 29%; pest or weed control at 140 g/ha [2, 14]: 0 to 29%
